Literature values as cited in patent US20220168251A1, “PROCESS FOR PRODUCTION OF A NANO-MICROEMULSION SYSTEM OF FERULIC” (priority 2020, published 2022).

Test system: hypertensive rats
Conditions: 8 weeks of treatment

COc1cc(/C=C/C(=O)O)ccc1O [ferulic acid, Ferulic acid]
blood flow to kidney: improvement
left ventricular stiffness in heart: decrease
systolic blood pressure: significant decrease
